# Results as given in paper PMC6733907, “Structural basis for activation of a diguanylate cyclase required for bacterial predation in Bdellovibrio” (Nature Communications, 2019).
# Where “and” joins values, the source holds several entries; their conditions need not be identical. Equal entries are not always repeated.
# Key:
# [1] = target: T1, DgcB (full-length) (Bdellovibrio bacteriovorus, UniProt Q6MPU8); assay: X-ray crystal structure, […] Å, co-purified ligand; format: binding; settings: I-site (RxxD: R218, D221) of both monomers; two c-di-GMP per dimer; product, feedback inhibitor
# T1 construct: gene Bd0742; full-length aa 1-310 (own numbering), C-terminal thrombin-cleavable 8xHis tag, E. coli BL21 lambda DE3; dimer with c-di-GMP
# T1 sequence (Q6MPU8 11-320): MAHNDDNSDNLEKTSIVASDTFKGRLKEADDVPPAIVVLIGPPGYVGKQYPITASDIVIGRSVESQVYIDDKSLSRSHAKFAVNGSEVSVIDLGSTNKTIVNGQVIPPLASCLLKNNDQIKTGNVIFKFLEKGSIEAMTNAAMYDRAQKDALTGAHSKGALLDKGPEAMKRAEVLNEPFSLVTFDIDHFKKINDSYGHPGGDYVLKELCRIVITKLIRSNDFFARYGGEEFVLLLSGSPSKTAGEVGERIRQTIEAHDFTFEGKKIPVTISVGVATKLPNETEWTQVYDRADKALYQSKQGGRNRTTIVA
# [2] = target: T2, GGDEF-only construct of DgcB (Bdellovibrio bacteriovorus, UniProt Q6MPU8); assay: co-purification of c-di-GMP with the protein; format: binding; settings: I-site
# T2 construct: gene Bd0742; GGDEF domain only, aa 148-310 (own numbering), C-terminal thrombin-cleavable 8xHis tag, E. coli BL21 lambda DE3
# T2 sequence (Q6MPU8 158-320): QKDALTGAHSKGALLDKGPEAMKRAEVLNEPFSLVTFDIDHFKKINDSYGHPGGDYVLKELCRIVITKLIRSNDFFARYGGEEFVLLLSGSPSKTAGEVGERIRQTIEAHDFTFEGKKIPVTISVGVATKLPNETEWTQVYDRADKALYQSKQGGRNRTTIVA
# [3] = target: DgcB S15C-S73C-R218A (disulphide-stapled double cysteine mutant), full length (Bdellovibrio bacteriovorus HD100); assay: SEC; non-reducing gel-filtration (buffer without DTT) after overnight incubation with 5 mM oxidised glutathione, sample at 50 mg/ml; sizes calibrated to known standards
stoichiometry N [3],Compound,"X-ray crystal structure, 1.79 Å, co-purified ligand [1]",co-purification of c-di-GMP with the protein [2]
,Nc1nc2c(ncn2[C@@H]2O[C@@H]3COP(=O)(O)O[C@H]4[C@@H](O)[C@H](n5cnc6c(=O)[nH]c(N)nc65)O[C@@H]4COP(=O)(O)O[C@H]3[C@H]2O)c(=O)[nH]1 [c-di-GMP],The dimer is stabilized by two molecules of c-di-GMP (classically intercalating via their planar bases),the GGDEF-only construct purifies with a small amount of c-di-GMP at the I-site
4 and 2,"DgcB S15C-S73C-R218A (disulphide-stapled double cysteine mutant), full length (enzyme)",,
